Assay results from US5210089A, “D-rhamnono-1,5-lactone” (Monsanto Company, priority 1992, dated 1993).
pIC50, pKi: −log10 of the molar value. Structures can show the parent of a compound that is named as a salt. Where two headings read alike, the source gives them in different places.

Key:
Lysosomal α-fucosidase = target: T1, Lysosomal α-fucosidase (Homo sapiens, UniProt P04066); test: Human liver glycosidase assay, lysosomal α-fucosidase; format: biochemical; details: read-out: Inhibition (%) at 1 mM, lysosomal α-fucosidase
T1 construct: human liver extracts; from tissue; host or cells: human liver extracts
T1 sequence (P04066 32-466): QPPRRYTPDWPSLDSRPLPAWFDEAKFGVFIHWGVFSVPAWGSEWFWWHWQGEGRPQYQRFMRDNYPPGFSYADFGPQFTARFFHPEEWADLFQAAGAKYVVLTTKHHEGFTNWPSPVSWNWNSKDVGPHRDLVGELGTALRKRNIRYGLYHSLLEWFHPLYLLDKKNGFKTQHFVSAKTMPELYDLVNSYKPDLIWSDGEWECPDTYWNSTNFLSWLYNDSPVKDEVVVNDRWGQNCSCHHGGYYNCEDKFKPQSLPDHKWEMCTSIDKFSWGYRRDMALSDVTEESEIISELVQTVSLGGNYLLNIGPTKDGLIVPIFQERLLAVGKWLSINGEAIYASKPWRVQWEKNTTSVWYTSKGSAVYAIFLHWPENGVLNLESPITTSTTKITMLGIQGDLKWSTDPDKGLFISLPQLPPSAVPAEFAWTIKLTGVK
Method: (§1) Melting points were recorded on a Kofler hot block. Proton nuclear magnetic resonance (δH) spectra were recorded on Varian Gemini 200 (at 200 MHz), Bruker WH 300 (300 MHz), or Bruker AM 500 (500 MHz) spectrometers. Carbon nuclear magnetic resonance (δC) spectra were recorded on a Varian Gemini 200 (50 MHz) or a Bruker 250 (62.9 MHz) spectrometer. Multiplicities were assigned using DEPT sequence on the Gemini and by off resonance decoupling on the Bruker. Spectra run in D2 O were referenced to methanol as an internal standard. All chemical shifts are quoted on the δ-scale. Infrared spectra were recorded on a Perkin-Elmer 297, or on a Perkin-Elmer 781 spectrophotometer. Mass spectra were recorded on VG Micromass 30F, ZAB lF, Masslab 20-250 or Trio-1 GCMS (DB-5 column) spectrometers using desorption chemical ionization (NH3 DCI), electron impact (EI), chemical ionization (NH3 CI) and fast atom bombardment (FAB) techniques, as stated. […] Concentrations were given in g/100 ml. Hydrogenations were run under an atmosphere of hydrogen gas maintained by inflated balloon. Microanalyses were performed by the microanalysis service of the DysonPerrins laboratory, Oxford UK. Thin layer chromatography (t.l.c.) was carried out on aluminum sheets coated with 60F254 silica. Plates were developed using either 5% v/v concentrated sulphuric acid in methanol, 0.2% w/v cerium (IV) sulphate and 5% ammonium molybdate in 2M sulphuric acid and 0.5% ninhydrin in methanol. Flash chromatography was carried out using Sorbsil C60 40/60 silica. Ion-exchange chromatography was performed using Dowex 50W-X8 (H) and Sigma CG 400 (Cl) resins. The resins were washed with 2M hydrochloric acid and 2M sodium hydroxide solution, respectively, and subsequently with distilled water, prior to use. Solvents and commercially available reagents were dried and purified before use according to standard procedures; dichloromethane was refluxed over and distilled from calcium hydride, N,N-dimethylformamide was distilled under reduced pressure from calcium hydride, methanol was distilled from magnesium methoxide, pyridine was distilled from, and stored over, potassium hydroxide and tetrahydrofuran was distilled from a purple solution of sodium benzophenone ketyl immediately before use. Hexane was distilled at 68° C. before use to remove involatile fractions. 2,3-O-Isopropylidene-L-gulono-1,4-lactone (9) [H. Ogura et al., J. Oro. Chem. 37, 72 (1972); G. W. J. Fleet Tetrahedron 45, 319 (1989)]and 2,3-O-isopropylidene-D-gulono-1,4-lactone (15) [L. M. Lerner et al., J. Org. Chem. 33, 1780 (1968)]were prepared from D- and L-Chem. gulonolactones [purchased from the Sigma Chemical Company] as reported previously. See, e.g., Fleet, U.S. Pat. No. 4,861,892. Human liver glycosidases were assayed in the absence and presence [1 mM] of each of the compounds using the appropriate buffered 4-methylumbellifeeryl-glycosides as substrates, as described previously. [B. Winchest et al., Biochem. J. 265, 277 (1990)]. Naringinase was assayed using pnitrophenyl α-L-rhamnoside (1.75 mM) as substrates, according to Romero [C. Romero et al., Anal. Biochem. 149, 566 (1985)].
(§2) The enzymes included human liver glycosidases and naringinase. The latter enzyme is a readily available endo-L-rhamnosidase described by Romero et al., Anal. Biochem. 149, 566 (1985).

Lysosomal α-mannosidase = target: T2, Lysosomal α-mannosidase (Homo sapiens, UniProt O00754); test: Human liver glycosidase assay, lysosomal α-mannosidase; format: biochemical; parameters: human liver extracts; from tissue; host or cells: human liver extracts; details: for inhibition at 1000 µM: 1 mM compound, 4-methylumbelliferyl-glycoside substrate
T2 sequence (O00754 50-1011): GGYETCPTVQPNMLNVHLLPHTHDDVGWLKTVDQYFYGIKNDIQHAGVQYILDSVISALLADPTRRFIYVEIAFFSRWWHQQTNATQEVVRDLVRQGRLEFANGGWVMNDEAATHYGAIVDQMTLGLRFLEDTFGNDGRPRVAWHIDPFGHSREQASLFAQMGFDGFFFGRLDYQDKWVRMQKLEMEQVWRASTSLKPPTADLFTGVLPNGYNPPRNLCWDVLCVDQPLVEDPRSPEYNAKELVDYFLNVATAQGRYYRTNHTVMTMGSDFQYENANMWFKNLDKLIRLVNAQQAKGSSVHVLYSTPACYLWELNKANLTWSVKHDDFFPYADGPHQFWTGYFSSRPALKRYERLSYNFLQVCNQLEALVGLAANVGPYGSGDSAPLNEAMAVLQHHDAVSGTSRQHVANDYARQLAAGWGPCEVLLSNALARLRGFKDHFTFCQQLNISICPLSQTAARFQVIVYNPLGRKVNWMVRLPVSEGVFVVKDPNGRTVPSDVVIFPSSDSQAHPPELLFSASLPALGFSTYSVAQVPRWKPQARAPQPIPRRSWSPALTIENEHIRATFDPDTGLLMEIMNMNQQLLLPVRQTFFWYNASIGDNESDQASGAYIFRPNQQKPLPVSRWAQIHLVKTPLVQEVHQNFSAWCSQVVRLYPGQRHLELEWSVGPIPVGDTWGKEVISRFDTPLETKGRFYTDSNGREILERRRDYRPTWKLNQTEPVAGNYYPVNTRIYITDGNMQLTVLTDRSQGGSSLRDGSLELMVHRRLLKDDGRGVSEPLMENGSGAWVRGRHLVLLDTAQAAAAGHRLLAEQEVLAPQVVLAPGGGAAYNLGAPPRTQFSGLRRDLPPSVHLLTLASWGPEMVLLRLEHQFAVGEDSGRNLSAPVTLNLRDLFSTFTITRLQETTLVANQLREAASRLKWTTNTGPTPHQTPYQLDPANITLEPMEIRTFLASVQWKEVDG
Method: as §1, §2

α-arabinosidase = test: Human liver glycosidase assay, α-arabinosidase; format: biochemical; details: 1 mM compound
Method: (§3) Melting points were recorded on a Kofler hot block. Proton nuclear magnetic resonance (δH) spectra were recorded on Varian Gemini 200 (at 200 MHz), Bruker WH 300 (300 MHz), or Bruker AM 500 (500 MHz) spectrometers. Carbon nuclear magnetic resonance (δC) spectra were recorded on a Varian Gemini 200 (50 MHz) or a Bruker 250 (62.9 MHz) spectrometer. Multiplicities were assigned using DEPT sequence on the Gemini and by off resonance decoupling on the Bruker. Spectra run in D2 O were referenced to methanol as an internal standard. All chemical shifts are quoted on the δ-scale. Infrared spectra were recorded on a Perkin-Elmer 297, or on a Perkin-Elmer 781 spectrophotometer. Mass spectra were recorded on VG Micromass 30F, ZAB lF, Masslab 20-250 or Trio-1 GCMS (DB-5 column) spectrometers using desorption chemical ionization (NH3 DCI), electron impact (EI), chemical ionization (NH3 CI) and fast atom bombardment (FAB) techniques, as stated. […] Concentrations were given in g/100 ml. Hydrogenations were run under an atmosphere of hydrogen gas maintained by inflated balloon. Microanalyses were performed by the microanalysis service of the DysonPerrins laboratory, Oxford UK. […]
as §2

human liver mannosidases = details: literature; cited from earlier work
mannosidases = details: literature; cited from earlier work
[1] = test system: glycoprotein processing mannosidase I; details: literature; cited from earlier work
[2] = test system: α-rhamnosidase (naringinase); test: Naringinase assay with p-nitrophenyl α-L-rhamnoside; format: biochemical; details: 1 mM compound; p-nitrophenyl α-L-rhamnoside 1.75 mM
Method: as §1, §2

bovine α-L-fucosidase = target: T3, bovine α-L-fucosidase (Bos taurus, UniProt Q2KIM0); details: literature; cited from earlier work
T3 sequence (Q2KIM0 23-468): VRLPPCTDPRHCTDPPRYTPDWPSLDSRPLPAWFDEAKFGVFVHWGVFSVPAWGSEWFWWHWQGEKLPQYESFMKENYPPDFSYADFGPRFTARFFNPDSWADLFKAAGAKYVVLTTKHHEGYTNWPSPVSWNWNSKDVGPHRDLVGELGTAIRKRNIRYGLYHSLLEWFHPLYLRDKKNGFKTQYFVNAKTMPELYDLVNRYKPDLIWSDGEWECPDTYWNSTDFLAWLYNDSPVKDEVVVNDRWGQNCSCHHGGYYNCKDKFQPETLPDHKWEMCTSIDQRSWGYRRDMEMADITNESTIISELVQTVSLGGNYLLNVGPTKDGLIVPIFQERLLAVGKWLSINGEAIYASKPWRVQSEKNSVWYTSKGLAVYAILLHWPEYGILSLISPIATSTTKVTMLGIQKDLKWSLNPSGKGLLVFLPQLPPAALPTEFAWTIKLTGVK

[3] = test system: N-acetyl-β-D-hexosaminidase; test: Human liver glycosidase assay, N-acetyl-β-D-hexosaminidase; format: biochemical; details: 1 mM compound
Method: as §3, §2

β-mannosidase = target: T4, β-mannosidase (Homo sapiens, UniProt O00462); details: literature; cited from earlier work
T4 sequence (O00462 18-879): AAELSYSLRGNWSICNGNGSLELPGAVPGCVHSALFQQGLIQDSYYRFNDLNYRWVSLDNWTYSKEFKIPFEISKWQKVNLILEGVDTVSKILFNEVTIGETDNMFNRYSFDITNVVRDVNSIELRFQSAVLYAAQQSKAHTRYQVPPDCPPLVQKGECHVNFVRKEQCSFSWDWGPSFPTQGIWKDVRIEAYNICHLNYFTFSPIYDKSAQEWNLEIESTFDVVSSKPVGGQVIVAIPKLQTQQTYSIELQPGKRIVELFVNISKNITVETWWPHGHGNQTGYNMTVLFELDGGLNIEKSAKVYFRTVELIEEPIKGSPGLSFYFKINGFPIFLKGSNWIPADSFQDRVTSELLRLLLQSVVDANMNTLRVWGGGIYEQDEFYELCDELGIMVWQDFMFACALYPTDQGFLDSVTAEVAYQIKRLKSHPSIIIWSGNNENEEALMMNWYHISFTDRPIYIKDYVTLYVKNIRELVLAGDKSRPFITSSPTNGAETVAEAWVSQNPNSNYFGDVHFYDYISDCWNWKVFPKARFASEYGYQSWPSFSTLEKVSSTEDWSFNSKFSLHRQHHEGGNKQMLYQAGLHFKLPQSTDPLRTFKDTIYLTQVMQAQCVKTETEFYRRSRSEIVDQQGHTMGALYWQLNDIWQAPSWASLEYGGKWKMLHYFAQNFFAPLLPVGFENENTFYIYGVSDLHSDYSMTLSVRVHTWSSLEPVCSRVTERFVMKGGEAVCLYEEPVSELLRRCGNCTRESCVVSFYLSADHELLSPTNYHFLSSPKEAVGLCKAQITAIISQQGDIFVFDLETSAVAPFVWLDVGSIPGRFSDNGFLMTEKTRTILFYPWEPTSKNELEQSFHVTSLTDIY

[4] = human liver, read-out: Ki, lysosomal α-mannosidase

inhibition at 1000 µM (Lysosomal α-fucosidase; 1 mM compound, human liver)	pKi (Lysosomal α-mannosidase; [4])	Inhibition (%) at 1 mM, α-arabinosidase (α-arabinosidase)	Structure (SMILES)	inhibition at 1000 µM (Lysosomal α-mannosidase; human liver)	Inhibition of glycoprotein processing mannosidase (in words) [1]	Inhibition (%) at 1 mM, α-rhamnosidase (naringinase) [2]	further results
21%	5.89	91%	C[C@@H](O)[C@H]1NC[C@@H](O)[C@H]1O [1,4-dideoxy-1,4-imino-6-deoxy-mannitol]	100%			Inhibition of human liver mannosidases (in words) (human liver mannosidases): excellent inhibitor
24%	4.89	66%	OC[C@@H](O)[C@H]1NC[C@@H](O)[C@H]1O [1,4-dideoxy-1,4-iminomannitol (3), 1,4-dideoxy-1,4-iminomannitol]	89%	strong		Inhibition of many mannosidases (in words) (mannosidases): strong
			C[C@H]1NC[C@@H](O)[C@@H](O)[C@@H]1O [D-Rhamnojirimycin (5), 1,5-amino-1,5,6-trideoxy-D-mannitol hydrochloride]	55%		10%	pIC50 (Lysosomal α-mannosidase; human liver, read-out: I50, lysosomal α-mannosidase): 3.00
			OC[C@H]1NC[C@@H](O)[C@@H](O)[C@@H]1O [DMJ (1), deoxymannojirimycin]		potent inhibitor		inhibition at 1000 µM (Lysosomal α-fucosidase): 92%; pKi (Lysosomal α-mannosidase): 3.12; Inhibition of bovine α-L-fucosidase (in words) (bovine α-L-fucosidase): potent inhibitor; Inhibition (%) at 1 mM, N-acetyl-β-D-hexosaminidase [3]: 54%
			C[C@@H]1NC[C@H](O)[C@H](O)[C@H]1O [L-Rhamnojirimycin (7), 1,5-Imino-1,5,6-trieoxy-L-mannitoI hydrochIoride]	19%		0%	
			O[C@H]1[C@H]2[C@H](O)CCCN2C[C@H]1O [swainsonine]				Inhibition of β-mannosidase (in words) (β-mannosidase): fail to inhibit
